# Experimental data from US20150204846A1, “PHOSPHATIDYLINOSITOL-3-KINASE C2 BETA MODULATORS AND METHODS OF USE THEREOF” (NEW YORK UNIVERSITY, priority 2012, published 2015).
# Entries after “also recorded” stand apart in the source; their conditions may differ.
# Test system: KCa3.1
# Assay: Whole cell patch clamp of FcεR1 stimulated KCa3.1 channel activity in BMMCs
# Format: cell-based, mouse
# Conditions: for rescue of FcεR1 stimulated KCa3.1 channel activity: TRIM27+/+ BMMC transfected with siRNA to PI3KC2β, phosphoinositide added to the pipette solution (PI3P 100 nM)
# Procedure: Whole cell patch clamping was performed on TRIM27^+/+ and TRIM27^−/− BMMCs that were first sensitized overnight with anti-DNP IgE and then stimulated with DNP-HSA using conditions previously described (5). Briefly, the standard pipette solution contained 140 mM KCl, 2 mM MgCl2, 10 mM Hepes, 2 mM Na^+-ATP and 0.1 mM GTP, pH 7.3. The standard external solution contained 140 mM NaCl, 5 mM KCl, 2 mM CaCl2, 1 mM MgCl2 and 10 mM Hepes, pH 7.3. Whole-cell currents were recorded using an Axoclamp 200 B amplifier (Axon Instruments, Foster City, Calif., USA), and currents were evoked by applying voltage commands to a range of potentials in 10 mV steps from a holding potential of 20 mV. For measuring the membrane potential, ruptured patch was used in current clamp mode as described in (34).
# To verify that PI3KC2β mediated activation of KCa3.1 via the generation of PI3P, PI3P (100 nM) was added into the pipette solution during patch clamping in BMMCs in which PI3KC2β was knocked down using siRNA (32). PI(3)P diC16 [C41H45Na3O16P2 (C6)] was purchased from Echelon Biosciences and used according to specifications at a concentration of 100 nM in the pipette solution.
Compound,rescue of FcεR1 stimulated KCa3.1 channel activity,"rescue of KCa3.1 channel activity (TRIM27-/- BMMC transfected with siRNA to PI3KC2β, PI3P added to the pipette solution)",rescue of FcεR1 stimulated KCa3.1 channel activity (listed as PI(4)P)
"CCCCCCCCCCCCCCCC(=O)OC[C@H](COP(=O)(O)O[C@@H]1[C@H](O)[C@H](OP(=O)(O)O)[C@@H](O)[C@H](O)[C@H]1O)OC(=O)CCCCCCCCCCCCCCC [PI3P, phosphatidylinositol 3 phosphate]",restored,rescue,
"PI(3,4,5)P3",failed to rescue; also recorded: failure,,
PI4P,failed to rescue,,failure
